In patent US8143025B2, “Antibodies against vascular endothelial growth factor receptor-1” (ImClone LLC, priority 2004, dated 2012):

System: MDA-MB-435 xenograft
Test: MDA-MB-435 breast tumor xenograft
Type: in vivo, mouse
Settings: MDA-MB-435 model, differences did not reach statistical significance
Procedure: Athymic nude mice (Charles River Laboratories, Wilmington, Mass.) were injected subcutaneously in the left flank area with 2×10^6 of DU4475 cells or 5×10^6 of MDA-MB-231 and MDA-MB-435 cells mixed in Matrigel (Collaborative Research Biochemicals. Bedford, Mass.). In the DU4475 and MDA-MB-231 models, tumors were allowed to reach approximately 200 mm^3 in size and then mice were randomized into groups of 12-16 animals per group. Animals received i.p. administration of the anti-VEGFR-I antibody clones 6F9, 15F11, or 18F1 at a dose of 0.5 mg (MDA-MB-231) or 1 mg (DU4475) three times each week. In the MDA-MB-435 model, the tumor cells were implanted subcutaneously into mammary fat pad area in the mouse. After tumors grew to reach approximately 200 mm^3 in size, mice were randomized into groups of 15 animals per group and intraperitoneally administered with 0.5 mg per dose of 18F1 antibody three times each week. Mice in control groups received an equal volume of saline solution. Treatment of animals was continued for the duration of the experiment. Tumors were measured twice each week with calipers. Tumor volumes were calculated using the formula [π/6 (w1×w2×w2)], where “w1” represents the largest tumor diameter and “w2” represents the smallest tumor diameter. […] Tumor growth was evaluated approximately twice weekly, with tumor volume calculated as π/6* (Length*Width^2), where Length=longest diameter and Width=diameter perpendicular to Length. Tumor dimensions were measured with calipers. T/C % was calculated as 100*(Final Treatment Tumor Volume/Initial Treatment Tumor Volume)/(Final Control Tumor Volume/Initial Control Tumor Volume). […] The effect of treatment on tumor growth was analyzed using repeated measures analysis of variance (RM ANOVA), p<0.05 was considered significant. […] AU treatments were administered i.p. The effect of treatments on tumor growth were analyzed using repeated measures analysis of variance (RM ANOVA), p<0.05 was considered significant.

O=P1(N(CCCl)CCCl)NCCCO1 (stereo not shown) [cyclophosphamide, reference compound]
T/C %: 65%
